Like-named read-outs stand apart in the source and are kept apart here.
Assays:
UGT1A9 [1] = molecular target: T1, UGT1A9 (Homo sapiens, UniProt O60656); settings: pH 7.4
T1 sequence (O60656 26-530): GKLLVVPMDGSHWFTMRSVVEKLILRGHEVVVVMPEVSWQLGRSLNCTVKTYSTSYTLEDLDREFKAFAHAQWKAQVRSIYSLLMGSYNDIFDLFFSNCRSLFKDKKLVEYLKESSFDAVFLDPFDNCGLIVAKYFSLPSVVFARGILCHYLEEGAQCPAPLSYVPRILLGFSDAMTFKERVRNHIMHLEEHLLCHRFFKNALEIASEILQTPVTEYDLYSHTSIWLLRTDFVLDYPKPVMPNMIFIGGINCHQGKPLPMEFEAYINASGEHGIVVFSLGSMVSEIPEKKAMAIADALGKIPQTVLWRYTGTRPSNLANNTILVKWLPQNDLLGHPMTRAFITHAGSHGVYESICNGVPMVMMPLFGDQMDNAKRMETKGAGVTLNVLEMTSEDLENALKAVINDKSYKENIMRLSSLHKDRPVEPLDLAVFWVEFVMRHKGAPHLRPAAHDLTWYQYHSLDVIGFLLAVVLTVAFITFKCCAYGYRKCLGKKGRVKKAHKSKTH

UGT1A1 = molecular target: T2, UGT1A1 (Homo sapiens, UniProt P22309); settings: pH 7.4
T2 sequence (P22309 26-533): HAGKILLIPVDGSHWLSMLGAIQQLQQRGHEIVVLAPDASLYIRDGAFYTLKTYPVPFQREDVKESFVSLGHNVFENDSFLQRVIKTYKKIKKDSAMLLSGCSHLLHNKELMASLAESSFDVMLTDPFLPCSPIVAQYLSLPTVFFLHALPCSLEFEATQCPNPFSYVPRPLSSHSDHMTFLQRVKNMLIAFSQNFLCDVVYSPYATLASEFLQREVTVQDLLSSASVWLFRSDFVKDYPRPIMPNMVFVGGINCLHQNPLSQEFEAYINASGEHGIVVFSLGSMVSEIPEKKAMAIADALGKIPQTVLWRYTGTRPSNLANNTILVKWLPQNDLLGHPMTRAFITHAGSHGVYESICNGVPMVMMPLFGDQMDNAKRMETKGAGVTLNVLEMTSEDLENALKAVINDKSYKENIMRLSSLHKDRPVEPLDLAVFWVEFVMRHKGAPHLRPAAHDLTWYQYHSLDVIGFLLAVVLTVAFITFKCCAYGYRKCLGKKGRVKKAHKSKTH

UGT1A3 = molecular target: T3, UGT1A3 (Homo sapiens, UniProt P35503); settings: pH 7.4
T3 sequence (P35503 29-534): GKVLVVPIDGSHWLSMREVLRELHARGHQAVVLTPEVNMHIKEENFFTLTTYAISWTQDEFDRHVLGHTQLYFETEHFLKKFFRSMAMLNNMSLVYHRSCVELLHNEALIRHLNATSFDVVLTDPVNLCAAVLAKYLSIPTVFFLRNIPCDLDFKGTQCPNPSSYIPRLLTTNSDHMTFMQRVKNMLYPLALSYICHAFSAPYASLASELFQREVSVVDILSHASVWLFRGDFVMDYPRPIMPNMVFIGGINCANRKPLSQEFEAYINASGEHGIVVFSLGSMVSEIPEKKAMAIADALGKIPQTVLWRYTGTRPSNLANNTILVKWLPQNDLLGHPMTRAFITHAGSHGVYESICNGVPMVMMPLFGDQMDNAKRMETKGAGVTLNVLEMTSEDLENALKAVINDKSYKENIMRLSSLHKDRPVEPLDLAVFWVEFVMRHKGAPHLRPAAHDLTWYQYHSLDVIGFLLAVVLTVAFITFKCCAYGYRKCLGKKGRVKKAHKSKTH

[2] = tested on: UGT 1A1, 1A3, 1A6, 1A7, 1A8, 1A9, 1A10 and 2B7; settings: human, 10 μM, pH 7.4
[3] = bioavailability studies in humans; cited from earlier work
UGT1A9 [4] = molecular target: T1, UGT1A9; settings: cited from earlier work

O=c1cc(-c2ccc(O)cc2)oc2cc(O)cc(O)c12 [5,7,4'THF, 5,7,4’-trihydroxyflavone]
Degree of regiospecificity (major glucuronide in bracket) (UGT1A9 [1]; 2.5 μM): Dominant (7-O) | Degree of regiospecificity (major glucuronide in bracket) (UGT1A9 [1]; 10 μM): Dominant (7-O) | Degree of regiospecificity (major glucuronide in bracket) (UGT1A1; 2.5 μM): Dominant (7-O) | Degree of regiospecificity (major glucuronide in bracket) (UGT1A1; 10 μM): Dominant (7-O) | Degree of regiospecificity (major glucuronide in bracket) (UGT1A3; 2.5 μM): Dominant (7-O) | Degree of regiospecificity (major glucuronide in bracket) (UGT1A3; 10 μM): Dominant (7-O) | Glucuronidation and regiospecificity across the 8 UGT isoforms [2]: all isoforms showed dominant regiospecific glucuronidation of hydroxyl group at C-7 position only

O=c1c(O)c(-c2ccc(O)c(O)c2)oc2cc(O)cc(O)c12 [quercetin, 3,5,7,3’-4’-pentahydroxyflavone]
Main glucuronide found [3]: 3-O-glucuronide of quercetin was also the main glucuronide | Catalytic efficiency order for regiospecific glucuronidation (UGT1A9 [4]): 3- > 7- > 3′- > 4′-O-glucuronide

Reference: publication PMC3391414 (Journal of Agricultural and Food Chemistry, 2011)
